Here are results for 7 compounds from ChEMBL document CHEMBL4334529, “Polypropionate Derivatives with Mycobacterium tuberculosis Protein Tyrosine Phosphatase B Inhibitory Activities from the Deep-Sea-Derived Fungus Aspergillus fischeri FS452” (J Nat Prod, 2019).

One assay deals with Candida albicans. Put plainly: Antifungal activity against Candida albicans. Type of assay: functional, organism-based.
In assay [1] the target is T1, Phosphotyrosine protein phosphatase (Mycobacterium tuberculosis, UniProt A0A045ISB3).
T1 sequence (A0A045ISB3 whole entry): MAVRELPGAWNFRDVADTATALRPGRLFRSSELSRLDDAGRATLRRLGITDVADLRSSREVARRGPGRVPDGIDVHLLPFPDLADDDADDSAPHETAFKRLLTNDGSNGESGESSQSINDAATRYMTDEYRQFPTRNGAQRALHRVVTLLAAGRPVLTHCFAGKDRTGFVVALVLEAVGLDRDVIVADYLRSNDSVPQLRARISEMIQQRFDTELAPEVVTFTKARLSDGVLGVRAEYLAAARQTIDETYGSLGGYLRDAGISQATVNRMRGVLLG
Put plainly: Inhibition of Mycobacterium tuberculosis H37Rv ptpB expressed in Escherichia coli BL21 (DH3) cells using 6,8-difluoromethylumbelliferyl phosphate as substrate incubated for 30 mins by fluorescence based assay.

Assay [2] has as its target T1, Phosphotyrosine protein phosphatase. Put plainly: Non-competitive inhibition of Mycobacterium tuberculosis H37Rv ptpB expressed in Escherichia coli BL21 (DH3) cells using p-nitrophenyl phosphate as substrate incubated for 30 mins by Lineweaver-Burk blot analysis.

pIC50, pKi: −log10 of the molar value. Active and inactive are the calls of the source. The calls are words filed in the database; no cut-off is given here.

For the compound `CC[C@H](C)C[C@H](C)C[C@@H]1CO[C@@H](/C(C)=C/C(=C\C=C\CC(=O)O)C(=O)O)[C@H](C)C1`, the result in the assay on Candida albicans was inactive. For the same compound, the pIC50 in assay [1] (read-out: IC50) was 5.29. The pKi in assay [2] was 5.05.

Regarding `C/C(=C\[C@H](C)C[C@@H](C)C[C@@H](C)C[C@@H](C)[C@@H](C)O)C(=O)NCCC(=O)O`, the result in the assay on Candida albicans was inactive. In addition, the negative-log IC50 (pIC50) in assay [1] (read-out: IC50) is less than 4.30.

`CC1(C)CC[C@]2(C(=O)O)CC[C@]3(C)C(=CC[C@@H]4[C@@]5(C)CC[C@H](O)C(C)(C)[C@@H]5CC[C@]43C)[C@@H]2C1` [OLEANOLIC_ACID] showed a pIC50 in assay [1] of 4.85.

As to `CC[C@H](C)C[C@H](C)C[C@H](CO)C[C@@H](C)/C=C(C)/C=C(C)/C=C/C=C/C(=O)N1CCCC(O)C1=O` (some centres not stated), in the assay on Candida albicans, the result was inactive. For the same compound, the pIC50 in assay [1] (read-out: IC50) was 4.96. In assay [2], the pKi is 4.80.

As for `CC[C@H](COC(C)=O)C[C@H](C)C[C@H](C)C[C@@H](C)/C=C(C)/C=C(/C=C/C=C/C(=O)O)C(=O)O`, the result with Candida albicans was inactive. Also, the pIC50 in assay [1] (read-out: IC50) is 5.40. Also, the pKi in assay [2] was 5.28.

Turning to `CC[C@H](C)C[C@H](C)C[C@H](CO)C[C@@H](C)/C=C(C)/C=C(C)\C=C\C=C\C(=O)N1CCCC(O)C1=O` (some centres not stated), the result with Candida albicans was inactive. Further, the pIC50 in assay [1] (read-out: IC50) was less than 4.30.

Turning to `CC[C@H](C)C[C@H](C)C[C@@H]1CO[C@@H](\C(C)=C/C(=C/C=C/CC(=O)O)C(=O)O)[C@H](C)C1`, in the assay on Candida albicans, the outcome was inactive. Also, the pIC50 in assay [1] (read-out: IC50) is 4.92. For the same compound, the negative logarithm of the Ki (pKi) in assay [2] was 5.15.

For orientation: pIC50 means the IC50 on a negative log10 scale, so that one unit is a factor of ten. The term pKi denotes the negative decadic logarithm of the Ki, by convention in mol/L.
